Assay results from the supplement of paper PMC10307832.

Assays:
Experiment in all cases: relative viability (nuclei count vs DMSO), 5 days (fraction); higher = more cells survive
Adavosertib + Olaparib = compound: C=CCn1c(=O)c2cnc(Nc3ccc(N4CCN(C)CC4)cc3)nc2n1-c1cccc(C(C)(C)O)n1 [Adavosertib] + O=C(c1cc(Cc2n[nH]c(=O)c3ccccc23)ccc1F)N1CCN(C(=O)C2CC2)CC1 [Olaparib] (partner 8 µM)
Summary of the method: (§1)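 Nuclei were stained with Hoechst during a one-step fixation (final 0.05% Triton X-100, 1% formaldehyde, 1 ug/ml Hoechst) carried out 5 days after dosing, then counted on 4× images. The cells, lung cancer lines in 1536-well plates, had been dosed by pin tool the day after seeding with one drug alone or a fixed anchor-drug dose plus five library-drug doses (not always all listed) in √10 steps. Relative viability is the nuclei count in treated wells divided by that in vehicle wells, and each value is the median of duplicate plates.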

Nelarabine + Tozasertib = compound: COc1nc(N)nc2c1ncn2[C@@H]1O[C@H](CO)[C@@H](O)[C@@H]1O [Nelarabine] + Cc1cc(Nc2cc(N3CCN(C)CC3)nc(Sc3ccc(NC(=O)C4CC4)cc3)n2)n[nH]1 [Tozasertib] (partner 0.1 µM)
Summary of the method: as §1

Nelarabine + Decitabine = compound: COc1nc(N)nc2c1ncn2[C@@H]1O[C@H](CO)[C@@H](O)[C@@H]1O [Nelarabine] + Nc1ncn([C@H]2C[C@H](O)[C@@H](CO)O2)c(=O)n1 [Decitabine] (partner 2 µM)
Summary of the method: as §1

Adavosertib + Lapatinib = compound: C=CCn1c(=O)c2cnc(Nc3ccc(N4CCN(C)CC4)cc3)nc2n1-c1cccc(C(C)(C)O)n1 [Adavosertib] + CS(=O)(=O)CCNCc1ccc(-c2ccc3ncnc(Nc4ccc(OCc5cccc(F)c5)c(Cl)c4)c3c2)o1 [Lapatinib] (partner 2 µM)
Summary of the method: as §1

Cell Line	relative viability (Adavosertib + Olaparib; first compound 0.01 µM)	relative viability (Adavosertib + Olaparib; first compound 0.03162 µM)	relative viability (Adavosertib + Olaparib; first compound 0.1 µM)	relative viability (Adavosertib + Olaparib; first compound 0.3162 µM)	relative viability (Nelarabine + Tozasertib; first compound 0.01 µM)	relative viability (Nelarabine + Tozasertib; first compound 0.03162 µM)	relative viability (Nelarabine + Tozasertib; first compound 0.1 µM)	relative viability (Nelarabine + Tozasertib; first compound 0.3162 µM)	relative viability (Nelarabine + Tozasertib; first compound 1 µM)	relative viability (Nelarabine + Decitabine; first compound 0.01 µM)	relative viability (Nelarabine + Decitabine; first compound 0.03162 µM)	relative viability (Nelarabine + Decitabine; first compound 0.1 µM)	relative viability (Nelarabine + Decitabine; first compound 0.3162 µM)	relative viability (Nelarabine + Decitabine; first compound 1 µM)	relative viability (Adavosertib + Lapatinib; first compound 0.01 µM)	relative viability (Adavosertib + Lapatinib; first compound 0.03162 µM)	relative viability (Adavosertib + Lapatinib; first compound 0.1 µM)	relative viability (Adavosertib + Lapatinib; first compound 0.3162 µM)
NCI-H23	0.339	0.317	0.24	0.138	0.594	0.327	0.377	0.369	0.509	0.249	0.272	0.299	0.348	0.303	0.935	1.25	0.855	0.328
NCI-H322M	0.771	0.801	0.699	0.425	0.554	0.485	0.407	0.501	0.456	0.68	0.662	0.659	0.718	0.678	–	0.558	0.505	0.435
LC-2-ad	0.7	0.725	0.803	0.786	0.464	0.418	0.414	0.468	0.439	0.904	0.865	0.757	0.932	0.73	0.964	0.954	0.991	0.906
LOU-NH91	0.857	0.917	0.946	0.928	0.787	0.675	0.675	0.673	0.653	0.896	0.755	0.766	0.802	0.809	0.74	0.804	0.734	0.674
NCI-H2009	0.686	0.739	0.802	0.777	0.893	0.748	0.742	0.812	0.752	0.412	0.331	0.398	0.447	0.385	0.975	0.99	1.05	0.926
SK-LU-1	0.498	0.461	0.389	0.249	0.307	0.198	0.298	0.323	0.332	0.815	0.574	0.638	0.822	0.597	0.857	0.834	0.787	0.281
NCI-H1793	0.739	0.794	0.746	0.529	0.316	0.317	0.328	0.327	0.352	0.291	–	0.535	0.595	0.513	0.61	0.714	0.721	0.647
NCI-H3122	0.662	0.611	0.549	0.575	0.547	0.403	–	0.434	0.534	0.419	0.299	–	0.463	0.476	1.01	0.924	1.07	1.07
NCI-H1437	0.65	0.613	0.643	0.566	0.466	0.353	0.488	0.427	0.41	0.627	0.651	0.568	0.634	0.557	0.83	0.778	0.831	0.812
NCI-H650	0.397	0.412	0.397	0.207	0.787	0.616	0.694	0.768	0.735	0.305	0.277	0.333	0.28	0.33	0.856	1.28	1.1	0.808
HCC-78	0.966	0.807	0.83	0.835	0.492	0.415	–	0.384	0.401	0.713	0.639	–	0.843	0.737	0.509	0.972	0.782	0.868
ABC-1	0.942	0.779	1.02	0.664	0.233	0.149	0.162	0.146	0.175	1.25	1.21	1.09	1.05	0.972	1.12	1.09	1.24	1.26
A-427	0.76	0.716	0.815	0.701	0.181	0.204	0.169	0.175	0.181	0.551	0.576	0.476	0.528	0.535	1.01	1.02	1.07	0.999
HCC-15	0.73	0.727	0.958	0.876	0.48	0.268	0.377	0.412	0.39	0.739	0.58	0.656	0.63	0.731	0.902	0.87	0.934	0.955
EKVX	0.756	0.841	0.783	0.833	0.463	0.476	0.449	0.372	0.395	0.373	0.266	0.356	0.292	0.571	0.216	0.233	0.201	0.225
BEN	1.07	1.01	1.12	1.05	0.566	0.495	0.551	0.546	0.452	0.729	0.762	0.712	0.79	0.744	0.751	0.728	0.801	0.948
201T	0.887	0.882	0.868	0.818	1.12	0.692	0.885	1.08	0.926	0.869	0.871	0.837	0.896	0.829	1.02	1.01	1.02	1.09
SW 1573	0.507	0.564	0.663	0.372	0.167	0.199	0.134	0.23	0.162	0.582	0.503	0.513	0.58	0.483	1.22	1.36	1.14	1.08

Cell Line	relative viability (Adavosertib + Olaparib; first compound 0.01 µM)	relative viability (Adavosertib + Olaparib; first compound 0.03162 µM)	relative viability (Adavosertib + Olaparib; first compound 0.1 µM)	relative viability (Adavosertib + Olaparib; first compound 0.3162 µM)	relative viability (Nelarabine + Tozasertib; first compound 0.01 µM)	relative viability (Nelarabine + Tozasertib; first compound 0.03162 µM)	relative viability (Nelarabine + Tozasertib; first compound 0.1 µM)	relative viability (Nelarabine + Tozasertib; first compound 0.3162 µM)	relative viability (Nelarabine + Tozasertib; first compound 1 µM)	relative viability (Nelarabine + Decitabine; first compound 0.01 µM)	relative viability (Nelarabine + Decitabine; first compound 0.03162 µM)	relative viability (Nelarabine + Decitabine; first compound 0.1 µM)	relative viability (Nelarabine + Decitabine; first compound 0.3162 µM)	relative viability (Nelarabine + Decitabine; first compound 1 µM)	relative viability (Adavosertib + Lapatinib; first compound 0.01 µM)	relative viability (Adavosertib + Lapatinib; first compound 0.03162 µM)	relative viability (Adavosertib + Lapatinib; first compound 0.1 µM)	relative viability (Adavosertib + Lapatinib; first compound 0.3162 µM)
HCC-827	0.627	0.707	0.709	0.655	0.499	0.423	0.446	0.366	0.476	0.24	0.315	0.306	0.355	0.289	0.198	0.2	0.215	0.191
NCI-H2085	0.831	0.753	0.829	0.759	0.847	0.914	0.733	0.882	0.736	0.536	0.535	0.52	0.605	0.439	0.743	0.813	0.86	0.836
NCI-H727	0.73	0.845	0.683	0.744	0.789	0.816	0.617	0.598	0.694	0.819	0.938	0.918	0.769	0.463	0.872	0.859	0.852	1.02
NCI-H596	0.736	0.791	0.52	0.591	1.07	0.835	0.879	0.862	0.827	1.09	0.972	1.06	1.09	1.13	0.995	1.12	1.01	1
PC-3 [JPC-3]	–	1.09	1.2	1.14	1.02	0.747	0.934	0.891	0.899	0.84	0.81	0.843	0.799	0.872	0.445	0.418	0.47	0.429
COR-L23	0.339	0.34	0.227	0.163	0.199	0.165	0.168	0.22	0.185	0.532	0.381	0.408	0.482	0.446	1.06	1.09	0.769	0.415
RERF-LC-KJ	0.952	0.986	1.05	0.955	0.558	0.483	0.456	0.5	0.513	0.764	0.639	0.705	0.699	0.711	0.915	0.826	0.89	0.825
HCC-366	0.356	0.376	0.317	0.32	0.0929	0.0947	0.0956	0.17	0.112	0.419	0.346	0.296	0.31	0.34	1.09	1.07	1.08	1.13
NCI-H460	0.391	0.376	0.308	0.405	0.834	0.253	0.38	0.77	0.442	0.707	0.726	0.476	0.525	0.539	1.11	0.978	1.04	0.83
NCI-H1915	0.258	0.277	0.264	0.269	0.576	0.417	0.633	0.475	0.459	0.261	0.266	0.258	0.27	0.268	0.984	0.923	1.02	0.959
COR-L 105	0.657	0.689	0.76	0.65	0.356	0.353	0.302	0.362	0.433	0.691	0.723	0.644	0.66	0.719	0.361	0.428	0.373	0.349
HARA	0.464	0.535	0.766	0.187	0.119	0.112	0.0991	0.0991	0.105	0.436	0.577	0.442	0.668	0.539	0.648	0.858	0.648	0.729
NCI-H1755	0.87	0.936	0.891	0.72	0.683	0.524	0.561	0.645	0.557	0.706	0.811	0.734	0.639	0.737	1.12	1.02	1.04	1.09
LXF-289	1.1	1.06	1.13	1.02	0.222	0.234	0.173	0.232	0.233	0.43	0.414	0.379	0.39	0.37	0.905	0.894	0.906	0.922
HCC-44	1	0.943	1.02	1.02	1.27	1.25	1	1.11	0.867	0.942	0.924	0.863	1.01	0.928	0.976	1.04	1.08	1.14
HOP-62	0.429	0.3	0.663	0.254	0.434	0.305	0.42	0.364	0.402	0.214	0.194	0.23	0.182	0.229	1.14	1.23	1.04	1.11
NCI-H2126	0.909	0.939	0.915	0.919	0.968	0.864	0.779	0.809	0.824	0.658	0.616	0.563	0.594	0.559	0.736	0.781	0.764	0.829
NCI-H1355	0.736	0.698	0.757	0.685	0.521	0.483	0.478	0.539	0.577	0.359	0.347	0.368	0.37	0.382	0.955	1.02	0.966	0.948
